Each block holds one substance with its values, some of them ahead of it.
Key:
[1] = target: T1, human factor IIa (thrombin) (Homo sapiens, UniProt P00734); assay: Inhibition of amidolytic activity of factor IIa (substrate S2238); assay type: biochemical; conditions: 1.0 μM aprotinin analogue
T1 construct: human factor IIa (thrombin) was a gift from Dr. W. Lawson; gift from Dr. W. Lawson (New York State Dept. of Health, Albany, N.Y.)
Description: (§1) The concentration was calculated using E280 nm=8.3 and Mr =6500. Human plasma kallikrein was obtained from Sigma (St. Louis, Mo.), bovine factor Xa was purified according to (H. Nobukazu et al. J.Biochem. 97 (1985)1347-1355), human factor IIa (thrombin) was a gift from Dr. W. Lawson (New York State Dept. of Health, Albany, N.Y.), recombinant human factor VIIa was from NOVO (Bagsvaerd, Denmark) and recombinant human protein Ca was from ZymoGenetics, Inc. (Seattle, Wash.). Substrate S 2302 (H-D-Pro-Phe-Arg-p-nitroanilide) substrate S2238 (H-D-Phe-Pip-Arg-p-nitroanilide) and substrate S2366 (Glu-Pro-Arg-p-nitroanilide) were from Kabi (Stockholm, Sweden). Substrate FXa-1 (methoxycarbonyl DCH-Gly-Arg-p-nitroanilide) was from NycoMed (Oslo, Norway). The experiments were performed in 100 mM NaCl, 50 mM Tris-HCl 0.01% Tween80, pH 7.4 at 25° C.
(§2) Substrate S 2302 (0.6 mM) was added to a final volume of 300 μand the rate of nitroaniline generation was measured at 405 nm by means of a Micro ELISA® Autoreader MR 580 from Dynatech Laboratories. […]
(§3) The analogues were also tested for inhibition of the amidolytic activity of the serine proteases: bovine factor Xa, human factor IIa, human recombinant factor VIIa and human recombinant protein Ca. […] Finally the analogues were analysed for an effect on the coagulation factors of human plasma by means of two clotting tests. […]

[2] = target: T2, recombinant human protein Ca (Homo sapiens, UniProt P04070); assay: Inhibition of amidolytic activity of protein Ca (substrate S2366); assay type: biochemical; conditions: graphical Dixon method, read-out: Ki, amidolytic activity, Prot. Ca
T2 construct: purchased ZymoGenetics, Inc. (Seattle, Wash.)
T2 sequence (P04070 212-461 limits assumed): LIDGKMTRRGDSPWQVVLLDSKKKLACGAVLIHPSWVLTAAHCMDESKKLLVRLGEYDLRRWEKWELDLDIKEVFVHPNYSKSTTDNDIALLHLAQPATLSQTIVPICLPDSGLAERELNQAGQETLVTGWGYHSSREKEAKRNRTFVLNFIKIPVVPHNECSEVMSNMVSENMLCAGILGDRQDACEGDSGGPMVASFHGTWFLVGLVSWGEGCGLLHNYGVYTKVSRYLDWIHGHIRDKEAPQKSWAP
T2 sequence (P04070 43-197 partner limits assumed): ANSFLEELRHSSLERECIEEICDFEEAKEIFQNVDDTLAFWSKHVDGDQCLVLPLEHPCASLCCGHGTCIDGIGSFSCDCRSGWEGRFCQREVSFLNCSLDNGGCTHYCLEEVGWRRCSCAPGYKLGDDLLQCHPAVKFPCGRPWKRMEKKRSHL
Description: as §1, §2, §3

[3] = system: coagulation factors of human plasma; assay: Clotting test, prothrombin time (PTT); assay type: biochemical; conditions: 1.0 μM aprotinin analogue
Description: (§4) The analogues were also tested for inhibition of the amidolytic activity of the serine proteases: bovine factor Xa, human factor IIa, human recombinant factor VIIa and human recombinant protein Ca. The experiments were performed essentially as described for plasma kallikrein only appropriate substrates were used. Finally the analogues were analysed for an effect on the coagulation factors of human plasma by means of two clotting tests. These tests, the prothrombin time (PTT) and the activated thromboplastin time (APTT) were performed with General Diagnostics® reagents from Organon (Durham, N.C.) according to the directions given by the manufacturer.

Human plasma kallikrein = target: T3, Human plasma kallikrein (Homo sapiens, UniProt P03952); assay: Inhibition of amidolytic activity of human plasma kallikrein (substrate S2302); assay type: biochemical
T3 construct: purchased Sigma (St. Louis, Mo.)
T3 sequence (P03952 391-638 limits assumed): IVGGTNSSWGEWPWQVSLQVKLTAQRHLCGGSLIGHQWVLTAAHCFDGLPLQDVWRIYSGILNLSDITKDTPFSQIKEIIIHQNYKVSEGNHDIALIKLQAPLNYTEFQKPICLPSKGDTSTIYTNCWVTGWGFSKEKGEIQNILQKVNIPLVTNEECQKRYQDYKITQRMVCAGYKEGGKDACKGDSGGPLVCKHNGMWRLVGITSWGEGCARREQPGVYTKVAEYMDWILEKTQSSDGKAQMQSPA
T3 sequence (P03952 20-390 partner limits assumed): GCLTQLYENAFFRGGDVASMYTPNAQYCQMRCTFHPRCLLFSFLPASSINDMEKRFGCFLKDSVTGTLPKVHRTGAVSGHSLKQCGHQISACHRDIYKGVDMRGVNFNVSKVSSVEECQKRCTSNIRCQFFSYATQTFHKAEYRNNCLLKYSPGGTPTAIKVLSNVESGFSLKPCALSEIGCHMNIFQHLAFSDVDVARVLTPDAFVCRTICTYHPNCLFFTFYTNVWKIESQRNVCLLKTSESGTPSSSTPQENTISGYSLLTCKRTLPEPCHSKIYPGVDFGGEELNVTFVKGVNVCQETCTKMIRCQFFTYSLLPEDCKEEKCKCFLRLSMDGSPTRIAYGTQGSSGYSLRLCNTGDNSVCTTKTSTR
Description: as §1
Substrate S 2302 (0.6 mM) was added to a final volume of 300 μand the rate of nitroaniline generation was measured at 405 nm by means of a Micro ELISA® Autoreader MR 580 from Dynatech Laboratories. The rate is proportional to the concentration of free enzyme.

bovine factor Xa = target: T4, bovine factor Xa (Bos taurus, UniProt P00743); assay: Inhibition of amidolytic activity of factor Xa (substrate FXa-1); assay type: biochemical; conditions: 1.0 μM aprotinin analogue; substrate FXa1
T4 construct: bovine factor Xa was purified according to (H. Nobukazu et al. J.Biochem. 97 (1985)1347-1355); from tissue; bovine plasma inferred
T4 sequence (P00743 234-492 limits assumed): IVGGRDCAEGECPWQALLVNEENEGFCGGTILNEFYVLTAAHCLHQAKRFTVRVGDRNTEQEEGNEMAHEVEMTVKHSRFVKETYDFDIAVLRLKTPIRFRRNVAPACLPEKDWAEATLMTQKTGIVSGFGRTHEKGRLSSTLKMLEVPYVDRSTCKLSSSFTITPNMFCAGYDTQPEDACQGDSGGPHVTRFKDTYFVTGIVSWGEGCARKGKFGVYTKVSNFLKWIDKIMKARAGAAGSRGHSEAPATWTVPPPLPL
T4 sequence (P00743 41-180 partner limits assumed): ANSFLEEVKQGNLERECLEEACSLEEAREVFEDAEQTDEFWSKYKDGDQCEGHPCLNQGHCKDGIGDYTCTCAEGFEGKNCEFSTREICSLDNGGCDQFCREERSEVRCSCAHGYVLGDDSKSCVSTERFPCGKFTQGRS
Description: as §1, §2, §3

[4] = target: T5, recombinant human factor VIIa (Homo sapiens, UniProt P08709); assay: Inhibition of amidolytic activity of factor VIIa; assay type: biochemical; conditions: 1.0 μM aprotinin analogue
T5 construct: recombinant human factor VIIa was from NOVO (Bagsvaerd, Denmark)
T5 sequence (P08709 213-466 limits assumed): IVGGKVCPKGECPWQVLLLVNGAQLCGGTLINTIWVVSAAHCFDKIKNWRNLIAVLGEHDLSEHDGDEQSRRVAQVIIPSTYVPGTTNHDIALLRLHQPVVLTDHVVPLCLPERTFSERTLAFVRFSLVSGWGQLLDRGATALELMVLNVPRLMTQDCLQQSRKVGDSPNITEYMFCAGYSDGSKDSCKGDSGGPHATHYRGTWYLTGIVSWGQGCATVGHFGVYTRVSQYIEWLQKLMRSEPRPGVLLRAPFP
T5 sequence (P08709 61-212 partner limits assumed): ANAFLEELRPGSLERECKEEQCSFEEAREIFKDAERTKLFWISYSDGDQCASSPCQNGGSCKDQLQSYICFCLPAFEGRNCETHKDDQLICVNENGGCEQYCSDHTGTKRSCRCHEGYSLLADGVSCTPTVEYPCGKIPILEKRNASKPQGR
Description: as §1, §2, §3

[5] = system: coagulation factors of human plasma; assay: Clotting test, activated thromboplastin time (APTT); assay type: biochemical; conditions: 1.0 μM aprotinin analogue
Description: as §4

collagenase = conditions: known analogues, as claimed in prior art; cited from earlier work
granulocyte elastase = target: T6, granulocyte elastase (Homo sapiens, UniProt P08246); conditions: known analogues, as claimed in prior art; cited from earlier work
T6 sequence (P08246 30-267): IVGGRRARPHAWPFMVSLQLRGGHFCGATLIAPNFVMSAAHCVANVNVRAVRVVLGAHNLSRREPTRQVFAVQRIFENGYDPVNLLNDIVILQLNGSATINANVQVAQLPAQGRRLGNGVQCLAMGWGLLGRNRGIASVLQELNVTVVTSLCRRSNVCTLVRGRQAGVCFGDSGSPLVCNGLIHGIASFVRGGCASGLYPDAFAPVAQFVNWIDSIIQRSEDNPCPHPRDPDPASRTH

trypsin = target: T7, trypsin (Bos taurus, UniProt P00760); conditions: known analogues, as claimed in prior art; cited from earlier work
T7 construct: gene PRSS1
T7 sequence (P00760 24-246): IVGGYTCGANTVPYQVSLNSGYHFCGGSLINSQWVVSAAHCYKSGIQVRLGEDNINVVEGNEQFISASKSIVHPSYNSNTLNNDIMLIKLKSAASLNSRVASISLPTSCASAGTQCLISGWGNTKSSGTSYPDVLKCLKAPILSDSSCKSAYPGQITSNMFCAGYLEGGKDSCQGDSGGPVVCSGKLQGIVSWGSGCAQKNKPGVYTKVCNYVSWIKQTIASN

kallikrein = conditions: known analogues, as claimed in prior art; cited from earlier work

- Amidolytic activity of FIIa, inhibition [1]: -
- Ki [2]: 400 nM
- Ki (Human plasma kallikrein; graphical Dixon method, substrate S2302, pH 7.4, 25° C.): 180 nM
- Inhibition of plasma kallikrein (in words, FIGS. 5A and 5B) (Human plasma kallikrein; kallikrein 3 nM, aprotinin 0-20 nM, 30 minutes): moderate inhibition
- Amidolytic activity of FXa, inhibition (bovine factor Xa): -
- Amidolytic activity of FVIIa, inhibition [4]: -
Substance: Aprotinin (bovine pancreatic trypsin inhibitor, BPTI) [Native Aprotinin]
- Clot assays PTT [3]: -
- Clot assays APTT [5]: -

Substance: aprotinin(15 Val)
- Inhibition effect on collagenase (in words) (collagenase): inhibition effect on collagenase
- Effect on elastase (in words) (granulocyte elastase): relatively high selectivity for granulocyte elastase

Substance: aprotinin(15Ala)
- Effect on elastase (in words) (granulocyte elastase): only a weak inhibitory effect on elastase

Substance: aprotinin(15Gly)
- Antitrypsin activity (in words) (trypsin): outstanding antitrypsin activity
- Inhibition of kallikrein (in words) (kallikrein): surprisingly inhibits kallikrein
